Results reported in patent US10759766B2, “Certain chemical entities, compositions, and methods” (NeuPharma, Inc., priority 2011, dated 2020).

What was measured:
KDR (VEGFR2) = KDR (VEGFR2) (Homo sapiens (Human), UniProt P35968); assay: Z′-LYTE kinase inhibition assay (Invitrogen), KDR; assay type: biochemical; conditions: Z′-LYTE method; for inhibition at 1 µM: 1 μM compound, read-out: % inhibition at 1 μM against KDR; for IC50: read-out: IC50 against KDR
Method: (§1) Inhibitory activities Inhibitory activities of compounds against BRAF, and BRAF V600E were measured by Invitrogen using Z′-LYTE® Method as briefly described in the following. 4× Test compounds are dissolved in 1% DMSO. […] ATP solutions are diluted to a 4×ATP working concentration in Kinase Buffer (50 mM HEPES pH 7.5, 0.01% BRIJ-35, 10 mM MgCl2, 1 mM EGTA). Reaction started by 30-second shaking of mixture consisting of 2.5 μL 4× test compound, […] and 2.5 μL 4×ATP Solution on Bar-coded Corning, low volume NBS, black 384-well plate (Corning Cat. #3676). Then the mixture was incubated for 60-minute at room temperature for the kinase reaction, followed by addition of 5 μL of a 1:1024 dilution of development reagent A and 30-second plate shake. The mixture was then incubated for another 60-minute at room temperature for development reaction. Fluorescence was read by plate reader. IC50 was calculated by plotting the concentration of compound vs the percentage of inhibition in treated wells using GraphPad Prism 5.
Inhibitory activities of compounds against KDR (VEGFR2) were also measured by Invitrogen using Z′-LYTE® Method as described above with the following modification. The 2× KDR (VEGFR2)/Tyr 01 mixture is prepared in 50 mM HEPES pH 7.5, 0.01% BRIJ-35, 10 mM MgCl2, 1 mM EGTA. The final 10 μL Kinase Reaction consists of 0.5-11.7 ng KDR (VEGFR2) and 2 μM Tyr 01 in 50 mM HEPES pH 7.5, 0.01% BRIJ-35, 10 mM MgCl2, 1 mM EGTA. After the 1 hour Kinase Reaction incubation, 5 μL of a 1:256 dilution of Development Reagent B is added.
The scale utilized in Table 5 is as follows: +++ less than 100 nM; and ++ greater than 100 nM

A375 cells = assay: Inhibition of cancer cell growth, MTT assay, A375; assay type: cell-based; conditions: Homo sapiens, A-375, 72 h exposure
Method: (§2) Inhibition of cell growth by compounds was measured using MTT assay (Mosmann, T., Journal of Immunological Methods, 1983, 65, 55-63). Tumor cell lines were purchased from ATCC (American Type Culture Collection, Manassas, Va.). All cell lines were maintained in RPMI 1640 (Hyclone) supplemented with 10% fetal bovine serum (FBS, Hyclone), glutamine (2 mM, Hyclone), and antibiotics (penicillin 100 U/mL and streptomycin 50 μg/mL) at 37° C. in a humidified atmosphere of 5% CO2 in air. Taxol (as a positive control, Sigma) and compounds were dissolved in DMSO (Sigma), and the final concentration of DMSO in the medium was 1%. Tumor cells were plated in 96-well plates at densities of about 4000 cells/well of a 96-well plate and allowed to adhere/grow for 24 h. They were then treated with various concentrations of drug for 72 h. 3-(4,5-Dimethylthiazol-2-yl)-2,5-diphenyltetrazolium bromide (MTT, Sigma) was used to determine the number of viable cells at the time of compound addition and the number of cells remaining after 72 h compound exposure. The number of cells remaining after 72 h was compared to the number of viable cells at the time of compound addition by measuring the absorbance at 570 nm, allowing for the calculation of growth inhibition.
(§3) All concentrations of compounds were tested in triplicate and controls were averaged over 4 wells. IC50 was calculated by plotting the concentration of compound vs the percentage of inhibition in treated wells using GraphPad Prism 5. […] The scale utilized in Table 6 is as follows: +++ less than 1000 nM; ++ between 1000 nM and 5000 nM; and + greater than 5000 nM. The scale utilized in Table 7 is as follows: +++ less than 2000 nM; ++ between 2000 nM and 5000 nM; and + greater than 5000 nM.

A549 cells = assay: Inhibition of cancer cell growth, MTT assay, A549; assay type: cell-based; conditions: Homo sapiens, A549, 72 h exposure
Method: as §2, §3

BRAF V600E = BRAF V600E (Homo sapiens (Human), UniProt P15056, V600E); assay: Z′-LYTE kinase inhibition assay (Invitrogen), BRAF V600E; assay type: biochemical; conditions: 1 μM compound, Z′-LYTE method; read-out: % inhibition at 1 μM against BRAF V600E
Method: as §1
The scale utilized in Table 3 is as follows: +++ less than 100 nM; and ++ greater than 100 nM.

Chain of KDR (VEGFR2) (P35968 20-1356): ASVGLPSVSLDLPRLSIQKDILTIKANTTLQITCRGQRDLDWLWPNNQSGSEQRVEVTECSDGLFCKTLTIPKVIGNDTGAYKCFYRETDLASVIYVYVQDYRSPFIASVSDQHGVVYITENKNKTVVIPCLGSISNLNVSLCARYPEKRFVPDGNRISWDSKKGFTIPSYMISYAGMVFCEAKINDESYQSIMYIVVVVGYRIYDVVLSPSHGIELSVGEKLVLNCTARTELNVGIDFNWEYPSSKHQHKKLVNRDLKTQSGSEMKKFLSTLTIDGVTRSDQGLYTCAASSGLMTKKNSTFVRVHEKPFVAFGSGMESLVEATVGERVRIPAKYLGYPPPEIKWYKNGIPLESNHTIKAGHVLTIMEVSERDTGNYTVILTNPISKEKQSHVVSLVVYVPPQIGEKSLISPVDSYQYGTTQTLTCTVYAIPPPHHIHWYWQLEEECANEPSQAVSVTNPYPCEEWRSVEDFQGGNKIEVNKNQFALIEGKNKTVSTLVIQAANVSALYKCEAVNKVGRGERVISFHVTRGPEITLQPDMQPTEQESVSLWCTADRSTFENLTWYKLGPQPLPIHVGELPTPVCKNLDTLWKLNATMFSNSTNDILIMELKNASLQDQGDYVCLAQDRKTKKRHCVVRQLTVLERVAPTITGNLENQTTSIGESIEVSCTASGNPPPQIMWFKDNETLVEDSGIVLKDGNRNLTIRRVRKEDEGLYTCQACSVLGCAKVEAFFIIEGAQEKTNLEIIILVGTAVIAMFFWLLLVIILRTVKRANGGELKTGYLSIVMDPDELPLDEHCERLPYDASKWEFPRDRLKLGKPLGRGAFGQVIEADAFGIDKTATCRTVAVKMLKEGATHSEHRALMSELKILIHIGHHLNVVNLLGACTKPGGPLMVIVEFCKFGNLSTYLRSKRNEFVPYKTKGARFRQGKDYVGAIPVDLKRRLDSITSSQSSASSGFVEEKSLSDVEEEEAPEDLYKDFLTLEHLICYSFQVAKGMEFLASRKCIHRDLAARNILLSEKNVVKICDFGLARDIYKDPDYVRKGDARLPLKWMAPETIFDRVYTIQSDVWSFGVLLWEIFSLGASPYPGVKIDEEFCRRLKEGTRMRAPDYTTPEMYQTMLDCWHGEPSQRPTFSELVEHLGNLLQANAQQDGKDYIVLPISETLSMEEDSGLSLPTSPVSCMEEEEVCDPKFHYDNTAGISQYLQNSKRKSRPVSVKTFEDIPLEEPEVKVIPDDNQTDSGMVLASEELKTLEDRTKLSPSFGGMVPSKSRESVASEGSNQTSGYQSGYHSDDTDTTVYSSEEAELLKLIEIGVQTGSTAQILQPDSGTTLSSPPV
Chain of BRAF V600E (P15056 whole entry V600E): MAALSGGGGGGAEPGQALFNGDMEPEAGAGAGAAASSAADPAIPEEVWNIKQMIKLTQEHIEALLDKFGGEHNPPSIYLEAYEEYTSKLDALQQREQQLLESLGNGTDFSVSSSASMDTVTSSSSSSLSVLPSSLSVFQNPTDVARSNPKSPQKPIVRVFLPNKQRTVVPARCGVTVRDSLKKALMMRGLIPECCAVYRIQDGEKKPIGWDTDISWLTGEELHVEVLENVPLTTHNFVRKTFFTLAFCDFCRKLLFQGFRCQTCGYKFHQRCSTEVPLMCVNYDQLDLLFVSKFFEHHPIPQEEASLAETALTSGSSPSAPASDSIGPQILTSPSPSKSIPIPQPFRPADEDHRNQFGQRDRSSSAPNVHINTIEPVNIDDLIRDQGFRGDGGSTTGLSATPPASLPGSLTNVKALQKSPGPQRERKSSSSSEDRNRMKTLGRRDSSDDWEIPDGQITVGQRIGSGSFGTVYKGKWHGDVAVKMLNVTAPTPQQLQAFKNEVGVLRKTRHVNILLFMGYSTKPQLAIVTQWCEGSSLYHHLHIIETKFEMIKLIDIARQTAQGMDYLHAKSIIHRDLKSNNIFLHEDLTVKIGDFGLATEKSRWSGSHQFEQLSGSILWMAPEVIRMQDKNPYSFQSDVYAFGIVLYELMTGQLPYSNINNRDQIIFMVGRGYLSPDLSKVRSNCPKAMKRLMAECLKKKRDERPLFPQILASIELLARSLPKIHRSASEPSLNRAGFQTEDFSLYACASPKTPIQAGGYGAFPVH

Structure (SMILES) | inhibition at 1 µM (KDR (VEGFR2)) [%] | IC50 (A375 cells) [µM] | IC50 (A549 cells) [µM] | inhibition at 1 µM (BRAF V600E) [%] | IC50 (KDR (VEGFR2)) [µM]
O=C(Nc1cc(F)cc(C(=O)c2ccc3nccnc3c2)c1)c1cccc(F)c1 [Compound C125, 3-fluoro-N-(3-fluoro-5-(quinoxaline-6-carbonyl)phenyl)benzamide] | < 70 | > 5 | > 5 | < 70 | 
O=C(Nc1ccc(F)c(Cl)c1)Nc1ccc(F)c(C(=O)c2ccc3ncc(N4CCOCC4)nc3c2)c1 [Compound C055, 1-(3-chloro-4-fluorophenyl)-3-(4-fluoro-3-(3-morpholinoquinoxaline-6-carbonyl)phenyl)urea] | > 89 | < 1 | < 2 | > 89 | 
O=C(Nc1ccc(F)c(F)c1)Nc1ccc(F)c(C(=O)c2ccc3nccnc3c2)c1 [Compound C071, 1-(3,4-difluorophenyl)-3-(4-fluoro-3-(quinoxaline-6-carbonyl)phenyl)urea] | < 70 | 1 to 5 | > 5 | > 89 | 
O=C(Nc1ccc(Cl)cc1)Nc1ccc(F)c(C(=O)c2ccc3ncc(N4CCOCC4)nc3c2)c1 [Compound C054, 1-(4-chlorophenyl)-3-(4-fluoro-3-(3-morpholinoquinoxaline-6-carbonyl)phenyl)urea] | > 89 | < 1 | < 2 | > 89 | 
O=C(Nc1cccc(Cl)c1)Nc1cc(F)cc(C(=O)c2ccc3nccnc3c2)c1 [Compound C068, 1-(3-chlorophenyl)-3-(3-fluoro-5-(quinoxaline-6-carbonyl)phenyl)urea] | < 70 | > 5 | > 5 | > 89 | 
O=C(Nc1ccc(Cl)c(C(F)(F)F)c1)Nc1cc(F)c(F)c(C(=O)c2ccc3ncc(N4CCOCC4)nc3c2)c1F [Compound C032, 1-(4-chloro-3-(trifluoromethyl)phenyl)-3-(2,4,5-trifluoro-3-(3-morpholinoquinoxaline-6-carbonyl)phenyl)urea] | < 70 | 1 to 5 | 2 to 5 | < 70 | 
O=C(Nc1cc(F)cc(C(=O)c2ccc3nccnc3c2)c1)c1cccc(C(F)(F)F)c1 [Compound C126, N-(3-fluoro-5-(quinoxaline-6-carbonyl)phenyl)-3-(trifluoromethyl)benzamide] | < 70 | 1 to 5 | > 5 | > 89 | 
O=C(Nc1cc(F)cc(Cl)c1)Nc1ccc(F)c(C(=O)c2ccc3ncc(N4CCOCC4)nc3c2)c1 [Compound C059, 1-(3-chloro-5-fluorophenyl)-3-(4-fluoro-3-(3-morpholinoquinoxaline-6-carbonyl)phenyl)urea] | 70 to 89 | 1 to 5 | 2 to 5 | > 89 | 
O=C(Nc1cccc(F)c1)Nc1ccc(F)c(C(=O)c2ccc3ncc(N4CCNCC4)nc3c2)c1 [Compound C084, 1-(4-fluoro-3-(3-(piperazin-1-yl)quinoxaline-6-carbonyl)phenyl)-3-(3-fluorophenyl)urea] | > 89 | < 1 | 2 to 5 | > 89 | 
O=C(Nc1cc(F)cc(F)c1)Nc1ccc(F)c(C(=O)c2ccc3ncc(N4CCNCC4)nc3c2)c1 [Compound C101, 1-(3,5-difluorophenyl)-3-(4-fluoro-3-(3-(piperazin-1-yl)quinoxaline-6-carbonyl)phenyl)urea] | 70 to 89 |  | 2 to 5 | > 89 | 
O=C(Nc1ccc(C(F)(F)F)cc1)Nc1ccc(F)c(C(=O)c2ccc3ncc(N4CCOCC4)nc3c2)c1 [Compound C057, 1-(4-fluoro-3-(3-morpholinoquinoxaline-6-carbonyl)phenyl)-3-(4-(trifluoromethyl)phenyl)urea] | > 89 | < 1 | < 2 | > 89 | 
O=C(Nc1cc(F)cc(F)c1)Nc1cc(F)c(F)c(C(=O)c2ccc3ncc(N4CCNCC4)nc3c2)c1 [Compound C104, 1-(3,4-difluoro-5-(3-(piperazin-1-yl)quinoxaline-6-carbonyl)phenyl)-3-(3,5-difluorophenyl)urea] |  |  | > 5 |  | 
O=C(Nc1ccc(F)c(C(=O)c2ccc3nccnc3c2)c1F)c1cccc(C(F)(F)F)c1 [Compound C114, N-(2,4-difluoro-3-(quinoxaline-6-carbonyl)phenyl)-3-(trifluoromethyl)benzamide] | 70 to 89 |  | > 5 | 70 to 89 | 
O=C(Nc1cc(F)cc(F)c1)Nc1cc(F)c(F)c(C(=O)c2ccc3ncc(N4CCOCC4)nc3c2)c1 [Compound C097] | < 70 |  | 2 to 5 | > 89 | 
O=C(Nc1cc(F)cc(F)c1)Nc1cc(F)cc(C(=O)c2ccc3ncc(N4CCOCC4)nc3c2)c1 [Compound C093] | < 70 |  | 2 to 5 | > 89 | 
O=C(Nc1ccc(F)cc1)Nc1cc(F)c(F)c(C(=O)c2ccc3ncc(N4CCOCC4)nc3c2)c1 [Compound C095, 1-(3,4-difluoro-5-(3-morpholinoquinoxaline-6-carbonyl)phenyl)-3-(4-fluorophenyl)urea] | 70 to 89 |  | > 5 | > 89 | 
O=C(Nc1ccc(F)cc1)Nc1cc(F)c(F)c(C(=O)c2ccc3ncc(N4CCNCC4)nc3c2)c1 [Compound C099, 1-(3,4-difluoro-5-(3-(piperazin-1-yl)quinoxaline-6-carbonyl)phenyl)-3-(4-fluorophenyl)urea] | 70 to 89 |  | < 2 | > 89 | > 0.1
O=C(Nc1ccc(F)c(F)c1)Nc1ccc(F)c(C(=O)c2ccc3ncc(N4CCNCC4)nc3c2)c1 [Compound C102, 1-(3,4-difluorophenyl)-3-(4-fluoro-3-(3-(piperazin-1-yl)quinoxaline-6-carbonyl)phenyl)urea] | > 89 |  | 2 to 5 | > 89 | < 0.1
O=C(Nc1ccc(F)c(F)c1)Nc1cc(F)c(F)c(C(=O)c2ccc3ncc(N4CCNCC4)nc3c2)c1 [Compound C103, 1-(3,4-difluoro-5-(3-(piperazin-1-yl)quinoxaline-6-carbonyl)phenyl)-3-(3,4-difluorophenyl)urea] |  |  | 2 to 5 |  | 
O=C(Nc1cc(F)cc(F)c1)Nc1ccc(F)c(C(=O)c2ccc3ncc(N4CCOCC4)nc3c2)c1 [Compound C094, 1-(3,5-difluorophenyl)-3-(4-fluoro-3-(3-morphlinoquinoxaline-6-carbonyl)phenyl)urea] | < 70 |  | > 5 | > 89 | 
O=C(Nc1cccc(F)c1)Nc1cc(F)c(F)c(C(=O)c2ccc3ncc(N4CCNCC4)nc3c2)c1 [Compound C098] | 70 to 89 |  | 2 to 5 | > 89 | 
O=C(Nc1ccc(F)c(F)c1)Nc1cc(F)c(F)c(C(=O)c2ccc3ncc(N4CCOCC4)nc3c2)c1 [Compound C096] | < 70 |  | > 5 | > 89 | 
